In ChEMBL document CHEMBL3885861, “Open TG-GATES”:

Species on record: Rattus norvegicus
Assay: Open TG-GATES - Regimen: Daily Repeat
Assay type: toxicity, organism-based, Sprague-Dawley
Parameters: regimen Daily Repeat, gender Male, age 6 weeks
Details: in vivo, po, 150 mg/kg, route gavage, dose level High; for APTT / Bas / Eos / Fbg / Hb / Ht / Lym / MCH / MCHC / MCV / Mono / Neu / PT / Plat / RBC / Ret / WBC: tissue Blood; for KIDNEY_L / KIDNEY_R / KIDNEY_TOTAL: tissue Kidney; for LIVER: tissue Liver; for A/G / ALP / ALT / AST / BUN / CRE / Ca / Cl / DBIL / GLC / IP / K / LDH / Na / PL / RALB / TBIL / TC / TG / TP / gamma-GTP: tissue Plasma

Work on CC(C)C(=O)Nc1ccc([N+](=O)[O-])c(C(F)(F)F)c1 [FLUTAMIDE] yielded a TERMINAL_BW (72 h, time 3 day) of 205.8 g, an APTT (72 h, time 3 day) of 17.2 s and a Bas (72 h, time 3 day) of 0%. For the same molecule, the Eos (72 h, time 3 day) was 0.8%, the Fbg (72 h, time 3 day) was 219 mg/dL and the Hb (72 h, time 3 day) was 14.3 g/dL. The Ht (72 h, time 3 day) was 43.1%, the Lym (72 h, time 3 day) was 87.4% and the MCH (72 h, time 3 day) was 21.2 pg. It also gave an MCHC (72 h, time 3 day) of 33.3%, an MCV (72 h, time 3 day) of 63.6 fL and a Mono (72 h, time 3 day) of 2.4%. For the same molecule, the Neu (72 h, time 3 day) was 8.6%, the PT (72 h, time 3 day) was 12.6 s and the Plat (72 h, time 3 day) was 125 x10_4/uL. It also gave an RBC (72 h, time 3 day) of 677.2 x10_4/ul, a Ret (72 h, time 3 day) of 3.5% and a WBC (72 h, time 3 day) of 86 x10_2/uL. For the same molecule, the KIDNEY_L (72 h, time 3 day) was 0.9 g, the KIDNEY_R (72 h, time 3 day) was 0.9 g and the KIDNEY_TOTAL (72 h, time 3 day) was 1.8 g. The LIVER (72 h, time 3 day) was 12.3 g, the A/G (72 h, time 3 day) was 1.7 and the ALP (72 h, time 3 day) was 1049 IU/L. The ALT (72 h, time 3 day) was 35.4 IU/L, the AST (72 h, time 3 day) was 54.2 IU/L and the BUN (72 h, time 3 day) was 13.2 mg/dL. The CRE (72 h, time 3 day) was 0.5 mg/dL, the Ca (72 h, time 3 day) was 10.5 mg/dL and the Cl (72 h, time 3 day) was 103.4 meq/L. For the same molecule, the DBIL (72 h, time 3 day) was 0.1 mg/dL, the GLC (72 h, time 3 day) was 203.2 mg/dL and the IP (72 h, time 3 day) was 7.7 mg/dL. It also gave a K (72 h, time 3 day) of 3.4 meq/L, an LDH (72 h, time 3 day) of 196.2 IU/L and a Na (72 h, time 3 day) of 141 meq/L. It also gave a PL (72 h, time 3 day) of 185.2 mg/dL, an RALB (72 h, time 3 day) of 3.6 g/dL and a TBIL (72 h, time 3 day) of 0.2 mg/dL. It also gave a TC (72 h, time 3 day) of 113.2 mg/dL, a TG (72 h, time 3 day) of 77.8 mg/dL and a TP (72 h, time 3 day) of 5.7 g/dL. It also gave a gamma-GTP (72 h, time 3 day) of 1.4 IU/L, a TERMINAL_BW ([…], time 7 day) of 233.5 g and a TERMINAL_BW ([…], time 14 day) of 269.7 g. The TERMINAL_BW ([…], time 28 day) was 325.6 g, the APTT ([…], time 7 day) was 18.2 s and the Bas ([…], time 7 day) was 0%. It also gave an Eos ([…], time 7 day) of 1%, a Fbg ([…], time 7 day) of 224.6 mg/dL and a Hb ([…], time 7 day) of 13.5 g/dL. For the same molecule, the Ht ([…], time 7 day) was 40.3%, the Lym ([…], time 7 day) was 81% and the MCH ([…], time 7 day) was 20.7 pg. For the same molecule, the MCHC ([…], time 7 day) was 33.4%, the MCV ([…], time 7 day) was 62 fL and the Mono ([…], time 7 day) was 2.8%. The Neu ([…], time 7 day) was 14.6%, the PT ([…], time 7 day) was 12.6 s and the Plat ([…], time 7 day) was 123.7 x10_4/uL. The RBC ([…], time 7 day) was 651 x10_4/ul, the Ret ([…], time 7 day) was 4.3% and the WBC ([…], time 7 day) was 111.1 x10_2/uL. For the same molecule, the APTT ([…], time 14 day) was 18.9 s, the Bas ([…], time 14 day) was 0% and the Eos ([…], time 14 day) was 1%. The Fbg ([…], time 14 day) was 228.2 mg/dL, the Hb ([…], time 14 day) was 13.9 g/dL and the Ht ([…], time 14 day) was 41.5%. It also gave a Lym ([…], time 14 day) of 79.4%, an MCH ([…], time 14 day) of 19.9 pg and an MCHC ([…], time 14 day) of 33.6%. It also gave an MCV ([…], time 14 day) of 59.3 fL, a Mono ([…], time 14 day) of 3.2% and a Neu ([…], time 14 day) of 15.2%. The PT ([…], time 14 day) was 12.9 s, the Plat ([…], time 14 day) was 115.7 x10_4/uL and the RBC ([…], time 14 day) was 699.6 x10_4/ul. The Ret ([…], time 14 day) was 4.5%, the WBC ([…], time 14 day) was 115.1 x10_2/uL and the APTT ([…], time 28 day) was 18.2 s. The Bas ([…], time 28 day) was 0%, the Eos ([…], time 28 day) was 1.2% and the Fbg ([…], time 28 day) was 237 mg/dL. For the same molecule, the Hb ([…], time 28 day) was 13.7 g/dL, the Ht ([…], time 28 day) was 39.9% and the Lym ([…], time 28 day) was 81.6%. For the same molecule, the MCH ([…], time 28 day) was 19.5 pg, the MCHC ([…], time 28 day) was 34.3% and the MCV ([…], time 28 day) was 56.9 fL. It also gave a Mono ([…], time 28 day) of 2.6%, a Neu ([…], time 28 day) of 13.6% and a PT ([…], time 28 day) of 12.8 s. For the same molecule, the Plat ([…], time 28 day) was 98 x10_4/uL, the RBC ([…], time 28 day) was 700.6 x10_4/ul and the Ret ([…], time 28 day) was 3.7%. It also gave a WBC ([…], time 28 day) of 112 x10_2/uL, a KIDNEY_L ([…], time 7 day) of 1 g and a KIDNEY_R ([…], time 7 day) of 1 g. It also gave a KIDNEY_TOTAL ([…], time 7 day) of 2 g, a KIDNEY_L ([…], time 14 day) of 1.1 g and a KIDNEY_R ([…], time 14 day) of 1.2 g. It also gave a KIDNEY_TOTAL ([…], time 14 day) of 2.2 g, a KIDNEY_L ([…], time 28 day) of 1.1 g and a KIDNEY_R ([…], time 28 day) of 1.2 g. For the same molecule, the KIDNEY_TOTAL ([…], time 28 day) was 2.3 g, the LIVER ([…], time 7 day) was 15.7 g and the LIVER ([…], time 14 day) was 16.8 g. For the same molecule, the LIVER ([…], time 28 day) was 20 g, the A/G ([…], time 7 day) was 1.5 and the ALP ([…], time 7 day) was 797.6 IU/L. For the same molecule, the ALT ([…], time 7 day) was 32.8 IU/L, the AST ([…], time 7 day) was 46 IU/L and the BUN ([…], time 7 day) was 16 mg/dL. For the same molecule, the CRE ([…], time 7 day) was 0.4 mg/dL, the Ca ([…], time 7 day) was 10.7 mg/dL and the Cl ([…], time 7 day) was 102.8 meq/L. It also gave a DBIL ([…], time 7 day) of 0.086 mg/dL, a GLC ([…], time 7 day) of 199.8 mg/dL and an IP ([…], time 7 day) of 7.1 mg/dL. The K ([…], time 7 day) was 3.5 meq/L, the LDH ([…], time 7 day) was 177.8 IU/L and the Na ([…], time 7 day) was 140.6 meq/L. It also gave a PL ([…], time 7 day) of 186.8 mg/dL, an RALB ([…], time 7 day) of 3.7 g/dL and a TBIL ([…], time 7 day) of 0.2 mg/dL. It also gave a TC ([…], time 7 day) of 110.6 mg/dL, a TG ([…], time 7 day) of 42.6 mg/dL and a TP ([…], time 7 day) of 6.2 g/dL. The gamma-GTP ([…], time 7 day) was 2 IU/L, the A/G ([…], time 14 day) was 1.7 and the ALP ([…], time 14 day) was 726.8 IU/L. The ALT ([…], time 14 day) was 31 IU/L, the AST ([…], time 14 day) was 47.4 IU/L and the BUN ([…], time 14 day) was 15 mg/dL. For the same molecule, the CRE ([…], time 14 day) was 0.5 mg/dL, the Ca ([…], time 14 day) was 10.5 mg/dL and the Cl ([…], time 14 day) was 103.4 meq/L. The DBIL ([…], time 14 day) was 0.096 mg/dL, the GLC ([…], time 14 day) was 181.2 mg/dL and the IP ([…], time 14 day) was 6.3 mg/dL. For the same molecule, the K ([…], time 14 day) was 3.8 meq/L, the LDH ([…], time 14 day) was 173.8 IU/L and the Na ([…], time 14 day) was 140.4 meq/L. The PL ([…], time 14 day) was 168.8 mg/dL, the RALB ([…], time 14 day) was 3.8 g/dL and the TBIL ([…], time 14 day) was 0.2 mg/dL. It also gave a TC ([…], time 14 day) of 104.4 mg/dL, a TG ([…], time 14 day) of 32.2 mg/dL and a TP ([…], time 14 day) of 6 g/dL. The gamma-GTP ([…], time 14 day) was 2.8 IU/L, the A/G ([…], time 28 day) was 1.8 and the ALP ([…], time 28 day) was 642.2 IU/L. The ALT ([…], time 28 day) was 29.2 IU/L, the AST ([…], time 28 day) was 45.2 IU/L and the BUN ([…], time 28 day) was 16.4 mg/dL. The CRE ([…], time 28 day) was 0.5 mg/dL, the Ca ([…], time 28 day) was 10.7 mg/dL and the Cl ([…], time 28 day) was 104 meq/L. The DBIL ([…], time 28 day) was 0.1 mg/dL, the GLC ([…], time 28 day) was 204.4 mg/dL and the IP ([…], time 28 day) was 7.6 mg/dL. The K ([…], time 28 day) was 3.7 meq/L, the LDH ([…], time 28 day) was 110.8 IU/L and the Na ([…], time 28 day) was 141.8 meq/L. It also gave a PL ([…], time 28 day) of 167.4 mg/dL, an RALB ([…], time 28 day) of 4.3 g/dL and a TBIL ([…], time 28 day) of 0.2 mg/dL. For the same molecule, the TC ([…], time 28 day) was 97.4 mg/dL, the TG ([…], time 28 day) was 26.6 mg/dL and the TP ([…], time 28 day) was 6.8 g/dL. The gamma-GTP ([…], time 28 day) was 1.8 IU/L.
